The record followed here is patent US11013696B2, “Lipids and lipid compositions for the delivery of active agents” (Novartis AG, priority 2013, dated 2021).

Data set [1] is described as follows: siRNA encapsulation in lipid nanoparticles (SYBR Gold). Type of data set: physicochemical. Conditions: Table 2; FVII siRNA in LNP with the cationic lipid. Here is the method:
The lipid nanoparticles (LNPs) were formed by mixing equal volumes of lipids dissolved in alcohol with siRNA dissolved in a citrate buffer by an impinging jet process. The lipid solution contains a cationic lipid compound of the invention, a helper lipid (cholesterol), an optional neutral lipid (DSPC) and a PEG (PEG) lipid at a concentration of 8-16 mg/mL with a target of 12 mg/mL in an alcohol. The siRNA to total lipid ratio is approximately 0.05 (wt/wt). Where a LNP formulation contains four lipid components, the molar ratios of the lipids ranges from 20 to 70 mole percent for the cationic lipid with a target of 40-60, the mole percent of helper lipid ranges from 20 to 70 with a target of 30 to 50, the mole percent of neutral lipid ranges from 0-30, the mole percent of PEG lipid has a range from 1 to 6 with a target of 2 to 5. The concentration of siRNA solution ranges from 0.7 to 1.0 mg/mL with a target of 0.8 to 0.9 mg/mL in a sodium citrate: sodium chloride buffer pH 4-6, with a target of 4.5-5.5. The LNPs are formed by mixing equal volumes of lipid solution in ethanol with siRNA dissolved in a citrate buffer by an impinging jet process through a mixing device with ID ranging from 0.25 to 2.0 mm at a flow rate from 10 to 640 mL/min. The mixed LNP solution is held at room temperature for 0-24 hrs prior to a dilution step. The solution is then concentrated and diafiltered with suitable buffer by ultrafiltration or dialysis process using membranes with a MW cutoff from 30 to 500 KD. The final product is sterile filtered and stored at 4° C.
The lipid nanoparticles (LNPs) were formed by mixing equal volumes of lipids dissolved in alcohol with siRNA dissolved in a citrate buffer by an impinging jet process. The lipid solution contains a cationic lipid compound of the invention, a helper lipid (cholesterol), an optional neutral lipid (DSPC) and a stealth lipid (5010, S024, S027, or S031) at a concentration of 8-16 mg/mL with a target of 12 mg/mL in an alcohol. The siRNA to total lipid ratio is approximately 0.05 (wt/wt). Where a LNP formulation contains four lipid components, the molar ratios of the lipids ranges from 20 to 70 mole percent for the cationic lipid with a target of 40-60, the mole percent of helper lipid ranges from 20 to 70 with a target of 30 to 50, the mole percent of neutral lipid ranges from 0-30, the mole percent of PEG lipid has a range from 1 to 6 with a target of 2 to 5. The concentration of siRNA solution ranges from 0.7 to 1.0 mg/mL with a target of 0.8 to 0.9 mg/mL in a sodium citrate: sodium chloride buffer pH 4-6, with a target of 4.5-5.5. The LNPs are formed by mixing equal volumes of lipid solution in ethanol with siRNA dissolved in a citrate buffer by an impinging jet process through a mixing device with ID ranging from 0.25 to 2.0 mm at a flow rate from 10 to 640 mL/min. The mixed LNP solution is held at room temperature for 0-24 hrs prior to a dilution step. The solution is then concentrated and diafiltered with suitable buffer by ultrafiltration process using membranes with a MW cutoff from 30 to 500 KD. The final product is sterile filtered and stored at 4° C.
SYBR Gold flourescence reagent is used for the determination of siRNA encapsulation in the DLP's. DLP's with and without triton x-100 are used to determine the free siRNA and total siRNA amounts. DLP's samples with and without triton X-100 were excited at 485 nm and flourescence emission is measured at 530 nm. Encapsulation efficiency is calculated based on the following formula: Encapsulation efficiency:[([…])/(total siRNA concentration)]×100% Encapsulation Data

Data set [2] can be described thus: Percent encapsulation of mRNA in lipid nanoparticles (Quant-iT Ribogreen). Type of data set: physicochemical. The conditions noted are these: Table 2; leptin mRNA in LNP with the cationic lipid. Here is the method:
All equipment and disposable supplies are certified free of RNase activity by the manufacturer or rendered RNase free by use of the RNaseZap reagent (LifeTechnologies). mRNA is encapsulated at a cationic lipid amine to mRNA phosphate (N:P) molar ratio of 4:1. Lipids (cationic lipid, DSPC, cholesterol and lipidated PEG or stealth lipid) are dissolved in ethanol. The molar ratios are 40:10:38:2, respectively. The mixture is sonicated briefly, then gently agitated for 5 minutes and then maintained at 37° C. until use. mRNA is exchanged into citrate buffer pH 5.8-6.0 by use of Amicon Ultra-15 centrifugal concentrators, and the final concentration is adjusted to 0.5 mg/ml and held at 37° C. until use. An equal volume of lipids in ethanol, mRNA in citrate buffer, and citrate buffer alone are drawn into disposable syringes. Tubing leading from syringes containing lipids and mRNA are attached to the T junction, and tubing leading from the syringe containing citrate buffer alone is paired with the tubing exiting the T-junction over a collection vessel containing a stir bar on an active stir plate. Syringes are placed in a syringe pump set to expel contents at a flow rate of 1 ml per minute.
The pump is activated, and the collected mRNA in lipid nanoparticles is transferred to SnakeSkin dialysis tubing (10,000 MWCO, Thermo Scientific). Material is dialyzed against RNAse- and pyrogen-free 1× phosphate buffered saline overnight at 4° C.
Percent encapsulation of mRNA in lipid nanoparticles is determined using the Quant-iT Ribogreen RNA Assay kit (Life Technologies). The LNP-mRNA suspension is assayed in buffer (mRNA outside the particle), and buffer plus Triton X-100 detergent (total mRNA). The difference calculated is the mRNA inside the particle. Prepare a 1000 ng/mL stock from the RNA provided in the kit and use this to generate a standard curve (0 ng/ml, 15.63-1000 ng/ml) in TE and TE+0.75% Triton X-100. Prepare LNP-mRNA samples in TE buffer and TE buffer +0.75% Triton X-100 with appropriate dilution so that reading is in the range of standard curve (400-2,000 fold). In a 384-well plate (Costar non-treated #3573) add 0.04 ml of standard (in duplicate) or sample (in triplicate) per well. Dilute Ribogreen reagent 240-fold in TE buffer and add 0.06 ml per well. Mix contents of wells and measure fluorescence (excitation=480 nm, emission=520 nm). Subtract background values (no RNA) from standard and test sample values and determine the concentrations of RNA in the samples using the standard curves. Determine the percent encapsulation of the sample by dividing the difference in concentrations between sample+triton and sample in buffer alone by the sample+triton concentration.

For `CCCCCCCCCCCCC(CCOC(=O)CCC(OCCCCCCCC)OCCCCCCCC)OC(=O)OCCCN(CC)CC` (centres unmarked) [Example 11, 3-(((3-(diethylamino)propoxy)carbonyl)oxy)pentadecyl 4,4-bis(octyloxy)butanoate], the “% encapsulation siRNA FVII” value in data set [1] was found to be 89.7%. In data set [2], the “% encapsulation mRNA Leptin” value was 98.2%.

On to `CCCCCCCCCCCCCC(=O)OCC(COC(=O)CCCCCCCCCCCCC)OC(=O)CCC(CCCCCCCCCCCC)OC(=O)OCCCN(CC)CC` (centres unmarked) [Example 84, 2-((4-(((3-(diethylamino)propoxy)carbonyl)oxy)hexadecanoyl)oxy)propane-1,3-diyl ditetradecanoate], for which, in data set [1], the “% encapsulation siRNA FVII” value stood at 77.5%. In data set [2], the “% encapsulation mRNA Leptin” value is on record as 83.1%.

As for `CCCCCCCCCCCCC(CCOC(=O)CCCCCCC(COC(=O)CCCCCCC)COC(=O)CCCCCCC)OC(=O)OCCCN(C)C` (centres unmarked) [Example 10, 2-(9-dodecyl-2-methyl-7,13-dioxo-6,8,12-trioxa-2-azanonadecan-19-yl)propane-1,3-diyl dioctanoate], the “% encapsulation siRNA FVII” value in data set [1] is 89.9%. Further, in data set [2], the “% encapsulation mRNA Leptin” value is 88.4%.

Consider `CCCCCCCCCCCCC(CCOC(=O)CCC(OCC(CCC)CCC)OCC(CCC)CCC)OC(=O)OCCCN(C)C` (centres unmarked) [Example 15, 3-(((3-(dimethylamino)propoxy)carbonyl)oxy)pentadecyl 4,4-bis((2-propylpentyl)oxy)butanoate], for which the “% encapsulation siRNA FVII” value in data set [1] stood at 91.0%. Besides, in data set [2], the “% encapsulation mRNA Leptin” value came to 98.9%.

With `CCCCCCCCCCCCC(CCOC(=O)CCCCCCC(OCC(CCC)CCC)OCC(CCC)CCC)OC(=O)OCCCN(C)C` (centres unmarked) [Example 23, 3-(((3-(dimethylamino)propoxy)carbonyl)oxy)pentadecyl 8,8-bis((2-propylpentyl)oxy)octanoate], the “% encapsulation siRNA FVII” value in data set [1] is recorded as 92.0%. For the same compound, the “% encapsulation mRNA Leptin” value in data set [2] is on record as 98.0%.

Regarding `CCCCC/C=C\C/C=C\CCCCCCCC(=O)OCCC(CCCCCCCCCCCC)OC(=O)OCCCN(C)CC` (centres unmarked) [Example 45, (9Z,12Z)-3-(((3-(ethyl(methyl)amino)propoxy)carbonyl)oxy)pentadecyl octadeca-9,12-dienoate], the “% encapsulation siRNA FVII” value in data set [1] is 86.4%. The “% encapsulation mRNA Leptin” value in data set [2] came out at 88.2%.

With `CCCCCCCCCCCCC(CCOC(=O)CCCCC(OCCCCCC)OCCCCCC)OC(=O)OCCCN(CC)CC` (centres unmarked) [Example 17, 3-(((3-(diethylamino)propoxy)carbonyl)oxy)pentadecyl 6,6-bis(hexyloxy)hexanoate], the “% encapsulation siRNA FVII” value in data set [1] is recorded as 88.3%. Also, the “% encapsulation mRNA Leptin” value in data set [2] is listed as 84.6%.

Regarding `CCCCCCCCCCCCC(CCOC(=O)CCC(OCC(CCC)CCC)OCC(CCC)CCC)OC(=O)OCCCN(C)CC` (centres unmarked) [Example 14, 3-(((3-(ethyl(methyl)amino)propoxy)carbonyl)oxy)pentadecyl 4,4-bis((2-propylpentyl)oxy)butanoate], in data set [1], the “% encapsulation siRNA FVII” value was determined as 88.0%. Moreover, the “% encapsulation mRNA Leptin” value in data set [2] worked out at 99.4%.

On to `CCCCCCCCCCCCC(CCC(=O)OC(COC(=O)CCCCCCCCCCC)COC(=O)CCCCCCCCCCC)OC(=O)OCCCN(CC)CC` (centres unmarked) [Example 88, 2-((4-(((3-(diethylamino)propoxy)carbonyl)oxy)hexadecanoyl)oxy)propane-1,3-diyl didodecanoate], for which, in data set [1], the “% encapsulation siRNA FVII” value came out at 77.4%. In addition, in data set [2], the “% encapsulation mRNA Leptin” value turned out to be 39.2%.

In the case of `CCCCCCCCCCCCC(CCOC(=O)CCCCCCC(OCC(CCC)CCC)OCC(CCC)CCC)OC(=O)OCCCN(CC)CC` (centres unmarked) [Example 21, 3-(((3-(diethylamino)propoxy)carbonyl)oxy)pentadecyl 8,8-bis((2-propylpentyl)oxy)octanoate], in data set [1], the “% encapsulation siRNA FVII” value stood at 91.2%. Also, in data set [2], the “% encapsulation mRNA Leptin” value is 98.2%.

For the compound `CCCCC/C=C\C/C=C\CCCCCCCC(=O)OCCN(CCOC(=O)CCCCCCC/C=C\C/C=C\CCCCC)C(=O)CCC(CCCCCCCCCCCC)OC(=O)OCCCN(CC)CC` (centres unmarked) [Example 103, (9Z,12Z)-10-dodecyl-3-ethyl-14-(2-((9Z,12Z)-octadeca-9,12-dienoyloxy)ethyl)-8,13-dioxo-7,9-dioxa-3,14-diazahexadecan-16-yl octadeca-9,12-dienoate], the “% encapsulation siRNA FVII” value in data set [1] was 83.2%. Besides, the “% encapsulation mRNA Leptin” value in data set [2] is 72.5%.

As for `CCCCCCCCCCCCC(CCOC(=O)CCCCCCC(OCC(CCC)CCC)OCC(CCC)CCC)OC(=O)OCCCN(C)CC` (centres unmarked) [Example 22, 3-(((3-(ethyl(methyl)amino)propoxy)carbonyl)oxy)pentadecyl 8,8-bis((2-propylpentyl)oxy)octanoate], the “% encapsulation siRNA FVII” value in data set [1] is on record as 91.7%. The “% encapsulation mRNA Leptin” value in data set [2] is listed as 99.2%.

With `CCCCCCCCCCCCC(CCOC(=O)CCCCCCC(COC(=O)CCCCCCC)COC(=O)CCCCCCC)OC(=O)OCCCN(CC)CC` (centres unmarked) [Example 9, 2-(10-dodecyl-3-ethyl-8,14-dioxo-7,9,13-trioxa-3-azaicosan-20-yl)propane-1,3-diyl dioctanoate], in data set [1], the “% encapsulation siRNA FVII” value was found to be 91.0%. Further, the “% encapsulation mRNA Leptin” value in data set [2] was found to be 96.6%.

As to `CCCCCCCCC(CCCCCCCC)CC(CCCCOC(=O)CCCCCCC)OC(=O)OCCCN(C)C` (centres unmarked) [Example 71, 5-(((3-(dimethylamino)propoxy)carbonyl)oxy)-7-octylpentadecyl octanoate], the “% encapsulation siRNA FVII” value in data set [1] is 86.7%.

`CCCCCCCC(=O)OCCCCCCCCCCC(CCOC(=O)CCCC(CCCCCCC)CCCCCCC)OC(=O)OCCCN(C)C` (centres unmarked) [Example 63, 3-(((3-(dimethylamino)propoxy)carbonyl)oxy)-13-(octanoyloxy)tridecyl 5-heptyldodecanoate]: the “% encapsulation siRNA FVII” value in data set [1] came out at 85.6%.

On to `CCCCC/C=C\C/C=C\CCCCCCCC(=O)OCCCCC(CC(CCCCCCCC)CCCCCCCC)OC(=O)OCCCN(C)C` (centres unmarked) [Example 72, (9Z,12Z)-5-(((3-(dimethylamino)propoxy)carbonyl)oxy)-7-octylpentadecyl octadeca-9,12-dienoate], for which the “% encapsulation siRNA FVII” value in data set [1] amounted to 62.5%.
